Test results taken from publication PMC3006138, “Fexinidazole – A New Oral Nitroimidazole Drug Candidate Entering Clinical Development for the Treatment of Sleeping Sickness” (PLoS Neglected Tropical Diseases, 2010).
Values joined by “and” are separate entries in the source; they are usually repeats but may differ in a detail not shown here. Identical values can stand only once. Like-named read-outs stand apart in the source and are kept apart here.

Columns and labels:
[1] = test system: T. b. rhodesiense (STIB 900); assay: In vitro trypanocidal assay (Alamar Blue); assay type: cell-based, Trypanosoma brucei rhodesiense
Procedure: (§1) 10 µL of Alamar Blue was added for the final 3 h to determine viability. […] The IC50 values were calculated from the sigmoidal inhibition curves. For cytotoxicity, 4×10^4/mL L-6 rat skeletal myoblast cells were used, and incubations and assessments carried out as above.

[2] = test system: T. b. gambiense (STIB 930); assay: In vitro trypanocidal assay (Alamar Blue); assay type: cell-based, Trypanosoma brucei gambiense; conditions: Trypanosoma brucei, 72 h; read-out: IC50
Procedure: Parasites were cultured with or without the test article at a concentration of 3×10^4/mL in Minimal Essential Medium, according to Baltz et al., with the following modifications: 0.2 mM 2-mercaptoethanol, 1 mM Na-pyruvate, 0.5 mM hypoxanthine and 15% heat inactivated horse serum at 37°C in 5% CO2 in 96-well microtitre plates for 72 h. 10 µL of Alamar Blue was added for the final 3 h to determine viability. The assay was assessed by reading the fluorescence in each well at an excitation wavelength of 536 nm and at an emission wavelength of 588 nm. The IC50 values were calculated from the sigmoidal inhibition curves. For cytotoxicity, 4×10^4/mL L-6 rat skeletal myoblast cells were used, and incubations and assessments carried out as above.

L-6 rat myoblast cells = assay: Cytotoxicity assay; assay type: cell-based; conditions: 72 h, read-out: IC50
Procedure: as §1

in vivo = conditions: male, NMRI, mouse, po, 200 mg/kg/day
Procedure: The study was conducted according to the study protocol [1].
gavage daily for 5 consecutive days at a dose of 200 mg/kg in a 5 % tween 80/ 0.5 %
Formulation Preparation and Concentration Check
were prepared according to the procedure already developed [2]; a sufficient volume of each
suspension was prepared in order to support the 5-day repeated oral administration. The
suspensions were stored at +4°C. The supportive stability data for the Fexinidazole
suspension after 7 days at +4°C was performed.
a specific, not validated, HPLC-UV method [2]. Three samples were analyzed for each
Sample Collection and Handling
About 0.05-0.07 mL of blood/sampling time were taken from the saphenous vein using
heparinized tubes (pre-cooled in an ice/water bath) and were centrifuged at 10000g for 3
minutes at 4°C. The separated plasma was stored at -80°C until analysis. Blood was taken at
validated LC-MS-MS methods.
Pharmacokinetic Calculations
Pharmacokinetic evaluation was carried out using a non-compartmental approach with the
aid of the Watson package (v. 6.4.0.04, Thermo Fisher Scientific, Waltham, MA, USA).
For the calculations, pre-dose concentrations of both compounds were set equal to zero.
After both compounds, on Day 5, Cmax and tmax were read from the raw plasma data as the
coordinates of the highest measured concentration. The area under plasma concentration vs.
time curve to finite time, AUC0-t(last), was determined by the linear trapezoidal rule up to the
last detectable concentration. The half-life of the terminal phase, t1/2,z, was determined by
linear regression analysis of the natural-log concentration vs. time curve, where t1/2,z =
ln(2)/slope of the regression line.
Descriptive statistics (mean ± SD, %CV) were reported for plasma concentrations and
pharmacokinetic parameters sorted by compound.
reported to three significant figures.
Plasma concentrations of sulphoxide and sulphone Fexinidazole metabolites were determined
by a LC-MS-MS method. The lower limit of the bioanalytical method was 5 ng/mL (run 1)
(v. 6.4.0.04, Thermo Fisher Scientific, Waltham, MA, USA).
Pharmacokinetic evaluations of the sulphone and sulphoxide metabolites were carried out
using non-compartmental approach with the aid of the Watson package (v. 6.4.0.04, Thermo
Fisher Scientific, Waltham, MA, USA).
After both doses, for the calculations, the pre-dose concentrations of the metabolites were set
Cmax and tmax were read from raw data as the coordinates of the highest measured

rat liver cells = assay: Ex vivo unscheduled DNA synthesis; assay type: in vivo; conditions: 10 mg/kg, positive control
Procedure: Groups of young male Sprague-Dawley rats received fexinidazole at doses of 500, 1000, or 2000 mg/kg orally, and the livers were sampled either 2–4 h or 12–14 h after administration. Hepatocyte suspensions were prepared and incubated in the presence of […] thymidine. Slides of fixed hepatocytes were coated in photographic emulsion and stored for 14 days at 4°C in the dark. The silver grains above the nuclei or cytoplasm (background) were counted, providing a measure of DNA uptake during DNA repair. The difference between these two counts indicated the extent of DNA repair (nuclear net grain count).

[3] = One-electron reduction potential by pulse radiolysis; assay type: physicochemical
Procedure: One-electron reduction potentials were determined by pulse radiolysis following an established procedure.

[4] = Trypanosoma brucei, 72 h; read-out: IC50

Row | SMILES | IC50 [2] | IC50 (L-6 rat myoblast cells) | IC50 [1, 4] | further results
1 | CC1CS(=O)(=O)CCN1/N=C/c1ccc([N+](=O)[O-])o1 (centres unmarked) [Nifurtimox] | 0.31 µg/mL and 1.08 µM | 25 µg/mL and 87 µM |  | IC50 ([1]; Trypanosoma brucei, 72 h, read-out: IC50): 0.4 µg/mL and 1.44 µM; AUC(0-t) (in vivo): 45700 ± 5880 ng·h/mL; Cmax (in vivo): 9250 ± 765 ng/mL; Tmax (in vivo): 1.5 ± 1.32 h; half-life (in vivo): 3.12 ± 1.45 h
2 | N=C(N)c1ccc(OCCCCCOc2ccc(C(=N)N)cc2)cc1 [Pentamidine] | 0.002 µg/mL and 10 nM | 3 µg/mL and 9 µM | 0.003 µg/mL and 9 nM | 
3 | Cc1ccc(C(=O)Nc2ccc(S(=O)(=O)O)c3cc(S(=O)(=O)O)cc(S(=O)(=O)O)c23)cc1NC(=O)c1cccc(NC(=O)Nc2cccc(C(=O)Nc3cc(C(=O)Nc4ccc(S(=O)(=O)O)c5cc(S(=O)(=O)O)cc(S(=O)(=O)O)c45)ccc3C)c2)c1 [Suramin] |  | > 90 µg/mL and > 70 µM | 0.062 µg/mL and 46 nM | 
4 | CN(C)N=O [dimethylnitrosamine, reference compound] |  |  |  | Net nuclear grain count (2–4 h) (rat liver cells): 8.9
5 | Cc1ncc([N+](=O)[O-])n1CCO [metronidazole, reference compound] |  |  |  | single electron redox potential [3]: −516 mV
